Measured values taken from patent publication US20160168616A1, “PRODUCTION OF NONTOXIC RAW MATERIALS AND FINISHED PRODUCTS TESTED BY MEANS OF AN INNOVATIVE PROBIOTIC BACTERIA BASED METHOD FOR DETERMINING TOXICITY TOWARDS PROBIOTIC BACTERIA” (PROBIOTICAL S.P.A., priority 2013, published 2016).

Test system: probiotic bacterial strains indicated in Table 1 with the numbers 17, 22, 41, 60, 74, 98, 121, 145, 174 and 182
Experiment: toxicity test of raw materials with the method of the invention (plate count, % mortality)
Format: cell-based
Details: raw material test; strains 17, 22, 41, 60, 74, 98, 121, 145, 174 and 182 of Table 1 as toxicity markers
Procedure: The method comprises a step in which the probiotic bacterial strain (toxicity marker) is placed in contact with a raw material to be tested using a quantity of raw material equal to that normally used in the formulation.
In practical terms, a first sample is prepared which comprises the probiotic bacterial strain (toxicity marker), the optimal culture substrate for said probiotic bacterial strain and the raw material to be tested.
Then a second sample (internal reference) is prepared which comprises the same probiotic bacterial strain used in said first sample (toxicity marker) and only the optimal culture substrate (without the raw material to be tested). […]
The ratio between the bacterial count (number of cells counted on the plate) of said first sample and the bacterial count (number of cells on the plate) of said second sample provides a number less than 1, which, if expressed as a percentage, provides a count of the bacteria which survived in contact with the raw material and, therefore, also expresses the % mortality induced by said raw material in the probiotic bacterial strains used as a marker. […]
8.11 incubate the plates upside down at 37±1° C. for 72 h under anaerobic conditions (Gas-Pak+anaerobic kit). […] The result will be expressed as CFU, i.e. Colony Forming Units. […]

Work on `O=C(O)CC(O)(CC(=O)O)C(=O)O` [Citric Acid] yielded a mortality found of 2%.
